Here are results for one compound from patent publication US4865619A, “Use, as a coupler, of 2,4-diamino-1,3-dimethoxybenzene or one of its salts, in combination with oxidation dye precursors, for dyeing human hair, hair dyeing composition containing the said coupler and process for preparing the said coupler” (L'Oreal, priority 1987, dated 1989).

Data set [1] in a line: mutagenicity (coupler stated to be nonmutagenic).
A short description of data set [2]: coloration of hair by the coupler in combination with oxidation dye precursors, oxidizing alkaline medium. Set-up: species or system human. Here is the method:
According to this process, the dyeing composition described above is mixed at the time of use with a sufficient quantity of an oxidizing solution, and the mixture obtained is then applied on the hair.
The oxidizing solution contains oxidizing agents such as hydrogen peroxide, urea peroxide or persalts such as ammonium persulphate. "20 volumes" hydrogen peroxide solution is preferably used.
The mixture obtained is applied on the hair; it is left in place for 10 to 40 minutes, preferably 15 to 30 minutes, after which the hair is rinsed, washed with shampoo, rinsed again and dried.

In the case of `COc1ccc(N)c(OC)c1N` [2,4-diamino-1,3-dimethoxybenzene], the mutagenicity result in data set [1] is on record as “nonmutagenic”. The “stability of the hues to light, inclement weather and washing” value in data set [2] (para-aminophenols, after development in the presence of an oxidizing agent) was “especially stable to light, to inclement weather and to washing”. The “stability of the colorations” value in data set [2] (red colorations, in combination with p-aminophenols, oxidizing alkaline medium) was “good stability”.
